One assay has as its target T1, DDR2 (Homo sapiens, UniProt Q16832).
T1 construct: purchased Life Technologies
T1 sequence (Q16832 22-855): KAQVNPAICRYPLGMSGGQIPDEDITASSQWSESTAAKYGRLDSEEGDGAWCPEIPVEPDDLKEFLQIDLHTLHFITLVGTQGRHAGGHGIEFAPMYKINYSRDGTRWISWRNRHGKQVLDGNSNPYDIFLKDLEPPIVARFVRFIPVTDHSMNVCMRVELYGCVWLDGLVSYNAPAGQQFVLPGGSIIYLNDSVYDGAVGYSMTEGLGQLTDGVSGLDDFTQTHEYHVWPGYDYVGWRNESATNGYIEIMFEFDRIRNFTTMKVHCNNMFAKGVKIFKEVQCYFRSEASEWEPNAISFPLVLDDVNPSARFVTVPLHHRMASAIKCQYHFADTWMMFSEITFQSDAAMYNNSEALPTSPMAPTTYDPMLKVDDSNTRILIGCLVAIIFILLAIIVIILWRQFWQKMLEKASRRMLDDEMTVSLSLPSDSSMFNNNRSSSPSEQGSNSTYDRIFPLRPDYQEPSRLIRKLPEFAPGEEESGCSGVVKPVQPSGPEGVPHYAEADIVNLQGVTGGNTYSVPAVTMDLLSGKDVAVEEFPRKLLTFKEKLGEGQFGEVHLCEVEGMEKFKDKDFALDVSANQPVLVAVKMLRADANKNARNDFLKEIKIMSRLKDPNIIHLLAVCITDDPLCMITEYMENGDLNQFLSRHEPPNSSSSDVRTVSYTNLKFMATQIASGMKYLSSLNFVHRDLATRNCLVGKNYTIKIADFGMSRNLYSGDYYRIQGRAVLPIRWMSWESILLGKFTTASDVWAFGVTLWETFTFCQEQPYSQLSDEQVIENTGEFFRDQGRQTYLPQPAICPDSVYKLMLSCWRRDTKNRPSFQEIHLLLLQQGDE
Nature of the assay: LanthaScreen Europium Kinase Binding assay, DDR2. The conditions noted are these: 5 nM DDR2, 10 nM Kinase Tracer 178, 1 h at rt; Ki from IC50 by Cheng-Prusoff; read-out: Ki DDR2. The procedure: (§1) DDR1 and DDR2 binding assays were performed using Life Technologies LanthaScreen™ Europium Kinase Binding assay. […] IC50 values were determined in GraphPad Prism 7.0 software, using 4 parameter model: log (inhibitor) vs. response. IC50 values were converted in Ki using the Cheng-Prusoff equation (Ki-IC50/(1+ [Tracer]/Kd).
(In general: In TR-FRET formats the signal depends on donor and acceptor labels being close together.)

The next assay concerns the target T2, DDR1 (Homo sapiens, UniProt Q08345).
T2 construct: purchased Carna Biosciences
As to the kind of experiment: LanthaScreen Europium Kinase Binding assay, DDR1. The conditions noted are these: 5 nM DDR1, 20 nM Kinase Tracer 178, 1 h at rt; Ki from IC50 by Cheng-Prusoff; read-out: Ki DDR1. The procedure: as §1

Molecules are shown by their SMILES. Some results are limits rather than exact numbers.

T2 sequence (Q08345 19-913): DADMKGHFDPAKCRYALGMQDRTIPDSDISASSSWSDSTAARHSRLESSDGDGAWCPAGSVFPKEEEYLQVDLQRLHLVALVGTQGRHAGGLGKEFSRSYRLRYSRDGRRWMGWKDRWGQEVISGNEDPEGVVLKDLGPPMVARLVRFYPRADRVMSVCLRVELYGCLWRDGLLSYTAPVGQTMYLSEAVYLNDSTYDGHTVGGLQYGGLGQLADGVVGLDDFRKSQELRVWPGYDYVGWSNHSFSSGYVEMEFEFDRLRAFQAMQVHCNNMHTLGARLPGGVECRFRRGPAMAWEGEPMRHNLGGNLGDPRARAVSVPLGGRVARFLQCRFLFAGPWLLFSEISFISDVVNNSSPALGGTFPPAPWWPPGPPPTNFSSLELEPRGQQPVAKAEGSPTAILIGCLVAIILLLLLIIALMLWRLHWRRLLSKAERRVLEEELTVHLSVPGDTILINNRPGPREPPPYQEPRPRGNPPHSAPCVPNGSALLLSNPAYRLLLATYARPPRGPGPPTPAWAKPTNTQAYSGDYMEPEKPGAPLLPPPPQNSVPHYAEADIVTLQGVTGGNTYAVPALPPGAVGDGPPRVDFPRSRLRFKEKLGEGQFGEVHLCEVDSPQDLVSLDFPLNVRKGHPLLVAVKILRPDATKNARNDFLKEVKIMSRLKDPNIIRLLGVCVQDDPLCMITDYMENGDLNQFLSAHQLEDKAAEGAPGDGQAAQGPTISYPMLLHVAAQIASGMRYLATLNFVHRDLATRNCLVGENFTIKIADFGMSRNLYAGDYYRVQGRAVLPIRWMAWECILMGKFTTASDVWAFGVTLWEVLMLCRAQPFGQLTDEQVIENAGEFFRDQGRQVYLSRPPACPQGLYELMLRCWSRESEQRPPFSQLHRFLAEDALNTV

By Ki is commonly meant a dissociation constant, usually derived from enzyme kinetics or from competition with a known ligand. Take `CN(C(=O)Nc1cc(C(F)(F)F)cnn1)C1CC2(C1)CN(C(=O)c1cnn3ccn(C)c13)C2` [Example 208, 1-methyl-1-(2-(1-methyl-1H-imidazo[1,2-b]pyrazole-7-carbonyl)-2-azaspiro[3.3]heptan-6-yl)-3-(5-(trifluoromethyl)pyridazin-3-yl)urea]: the figures for the Ki on DDR2 and at DDR1 were 25 to 100 nM and 5 to 25 nM, respectively.
For the molecule `O=C(Nc1cc(C(F)(F)F)ncn1)OC1CC2(C1)CN(C(=O)c1cnn3ccsc13)C2` [Example 292, 2-(pyrazolo[5,1-b]thiazole-7-carbonyl)-2-azaspiro[3.3]heptan-6-yl(6-(trifluoromethyl)pyrimidin-4-yl)carbamate], the figures for the Ki on DDR2 and at DDR1 were 5 to 25 nM and less than 5 nM, respectively.
The matching figures for `CN(C(=O)Nc1cc(CC(F)(F)F)ccn1)C1CC2(C1)CN(C(=O)c1cnn3ccn(C)c13)C2` [Example 150, 1-methyl-1-(2-(1-methyl-1H-imidazo[1,2-b]pyrazole-7-carbonyl)-2-azaspiro[3.3]heptan-6-yl)-3-(4-(2,2,2-trifluoroethyl)pyridin-2-yl)urea]: 5 to 25 nM and less than 5 nM.
In the same order, the values of `CN(C(=O)Nc1cncc(C(F)(F)F)c1)C1CC2(C1)CN(C(=O)c1cnn3cc(N4CCCC4)ccc13)C2` [Example 240, 1-methyl-1-(2-(6-(pyrrolidin-1-yl)pyrazolo[1,5-a]pyridine-3-carbonyl)-2-azaspiro[3.3]heptan-6-yl)-3-(5-(trifluoromethyl)pyridin-3-yl)urea] are 5 to 25 nM and 5 to 25 nM.
With `Cn1ccn2ncc(C(=O)N3CC4(CC(NC(=O)Nc5cccc(S(=O)(=O)C(F)(F)F)c5)C4)C3)c12` [Example 161, 1-(2-(1-methyl-1H-imidazo[1,2-b]pyrazole-7-carbonyl)-2-azaspiro[3.3]heptan-6-yl)-3-(3-((trifluoromethyl)sulfonyl)phenyl)urea], the inhibition constant (Ki) on DDR2 is 5 to 25 nM; on DDR1, less than 5 nM.
The matching figures for `CN(C(=O)Nc1cncc(SC(F)(F)F)c1)C1CC2(C1)CN(C(=O)c1cnn3ccn(C)c13)C2` [Example 207, 1-methyl-1-(2-(1-methyl-1H-imidazo[1,2-b]pyrazole-7-carbonyl)-2-azaspiro[3.3]heptan-6-yl)-3-(5-((trifluoromethyl)thio)pyridin-3-yl)urea]: 5 to 25 nM and less than 5 nM.
As for `O=C(Nc1cc(CO)cc(C(F)(F)F)c1)NC1CC2(C1)CN(C(=O)c1cnn3ccsc13)C2` [Example 41, 1-(3-(hydroxymethyl)-5-(trifluoromethyl)phenyl)-3-(2-(pyrazolo[5,1-b]thiazole-7-carbonyl)-2-azaspiro[3.3]heptan-6-yl)urea], the Ki was 5 to 25 nM at DDR2 and less than 5 nM at DDR1.
With `COc1ccc(C(F)(F)F)cc1NC(=O)NC1CC2(C1)CN(C(=O)c1cnn3ccn(C)c13)C2` [Example 65, 1-(2-methoxy-5-(trifluoromethyl)phenyl)-3-(2-(1-methyl-1H-imidazo[1,2-b]pyrazole-7-carbonyl)-2-azaspiro[3.3]heptan-6-yl)urea], the results for the Ki on DDR2 and on DDR1 were 5 to 25 nM and less than 5 nM, respectively.
The matching figures for `O=C(Nc1cc(OC(F)(F)F)ccn1)NC1CC2(C1)CN(C(=O)c1cnn3ccsc13)C2` [Example 97, 1-(2-(pyrazolo[5,1-b]thiazole-7-carbonyl)-2-azaspiro[3.3]heptan-6-yl)-3-(4-(trifluoromethoxy)pyridin-2-yl)urea]: less than 5 nM and less than 5 nM.
For `Nc1ccn2ncc(C(=O)N3CC4(CC(NC(=O)Nc5cccc(C(F)(F)F)c5)C4)C3)c2c1` [Example 184, 1-(2-(5-aminopyrazolo[1,5-a]pyridine-3-carbonyl)-2-azaspiro[3.3]heptan-6-yl)-3-(3-(trifluoromethyl)phenyl)urea], the Ki at DDR2 and at DDR1 was less than 5 nM each time.
With `O=C(Nc1cc(F)cc(C(F)(F)F)c1)NC1CC2(C1)CN(C(=O)c1cnn3ccncc13)C2` [Example 16, 1-(3-fluoro-5-(trifluoromethyl)phenyl)-3-(2-(pyrazolo[1,5-a]pyrazine-3-carbonyl)-2-azaspiro[3.3]heptan-6-yl)urea], the Ki on DDR2 is 5 to 25 nM; at DDR1 it was less than 5 nM.
The matching figures for `CN(C(=O)Nc1cccc(C2(C(F)(F)F)CC2)c1)C1CC2(C1)CN(C(=O)c1cnn3ccn(C)c13)C2` [Example 198, 1-methyl-1-(2-(1-methyl-1H-imidazo[1,2-b]pyrazole-7-carbonyl)-2-azaspiro[3.3]heptan-6-yl)-3-(3-(1-(trifluoromethyl)cyclopropyl)phenyl)urea]: less than 5 nM and less than 5 nM.
For the molecule `Cn1ccn2ncc(C(=O)N3CC4(CC(NC(=O)Nc5cc(C(F)(F)F)ncn5)C4)C3)c12` [Example 103, 1-(2-(1-methyl-1H-imidazo[1,2-b]pyrazole-7-carbonyl)-2-azaspiro[3.3]heptan-6-yl)-3-(6-(trifluoromethyl)pyrimidin-4-yl)urea], the Ki on DDR2 was 5 to 25 nM; on DDR1, less than 5 nM.
In the same order, the values of `Cn1ccn2ncc(C(=O)N3CC4(CC(OC(=O)Nc5cc(C(C)(C)C(F)(F)F)on5)C4)C3)c12` [Example 271, 2-(1-methyl-1H-imidazo[1,2-b]pyrazole-7-carbonyl)-2-azaspiro[3.3]heptan-6-yl(5-(1,1,1-trifluoro-2-methylpropan-2-yl)isoxazol-3-yl)carbamate] are less than 5 nM and less than 5 nM.
As to `Cn1ccn2ncc(C(=O)N3CC4(CC(NC(=O)Nc5cc(C(F)F)ccn5)C4)C3)c12` [Example 66, 1-(4-(difluoromethyl)pyridin-2-yl)-3-(2-(1-methyl-1H-imidazo[1,2-b]pyrazole-7-carbonyl)-2-azaspiro[3.3]heptan-6-yl)urea], the figures for the Ki at DDR2 and on DDR1 were 5 to 25 nM and less than 5 nM, respectively.
In the same order, the values of `Cc1nn(C)cc1-c1ccc2c(C(=O)N3CC4(CC(N(C)C(=O)Nc5cncc(C(F)(F)F)c5)C4)C3)cnn2c1` [Example 258, 1-(2-(6-(1,3-dimethyl-1H-pyrazol-4-yl)pyrazolo[1,5-a]pyridine-3-carbonyl)-2-azaspiro[3.3]heptan-6-yl)-1-methyl-3-(5-(trifluoromethyl)pyridin-3-yl)urea] are 5 to 25 nM and less than 5 nM.
The matching figures for `CN(C(=O)Nc1cc(C(F)(F)F)ncn1)C1CC2(C1)CN(C(=O)c1cnn3ccsc13)C2` [Example 178, 1-methyl-1-(2-(pyrazolo[5,1-b]thiazole-7-carbonyl)-2-azaspiro[3.3]heptan-6-yl)-3-(6-(trifluoromethyl)pyrimidin-4-yl)urea]: 25 to 100 nM and less than 5 nM.
For `O=C(CC1CC2(C1)CN(C(=O)c1cnn3ccsc13)C2)Nc1cncc(OC(F)(F)F)c1` [Example 275, 2-(2-(pyrazolo[5,1-b]thiazole-7-carbonyl)-2-azaspiro[3.3]heptan-6-yl)-N-(5-(trifluoromethoxy)pyridin-3-yl)acetamide], the Ki at DDR2 and on DDR1 was less than 5 nM in each case.
For `CN(C(=O)Nc1cc(OC(F)(F)F)ccn1)C1CC2(C1)CN(C(=O)c1cnn3ccncc13)C2` [Example 190, 1-methyl-1-(2-(pyrazolo[1,5-a]pyrazine-3-carbonyl)-2-azaspiro[3.3]heptan-6-yl)-3-(4-(trifluoromethoxy)pyridin-2-yl)urea], the Ki at DDR2 was in the range of 25 to 100 nM; at DDR1 it was 5 to 25 nM.

Source of the values: US20260285855A1, “HETEROARYL DERIVATIVES AS DDRS INHIBITORS” (CHIESI FARMACEUTICI S.P.A., priority 2023, published 2026).
